# Reference: patent publication US20220370586A1, “METHOD OF GENERATING ACTIVATED T CELLS FOR CANCER THERAPY” (Cedars-Sinai Medical Center, priority 2019, published 2022)
# What was measured:
# T effector cells = assay: T cell suppression assay (CFSE proliferation of T effector cells, FACS); format: cell-based, human; conditions: for effect on T effector cell proliferation (in words): T cell activation by antigen presenting cells, with or without Tregs; for increase of T cell expansion compared to T control group (without molecule): with T-reg (1:1)
# Description: PBMC was isolated (Ficoll, GE Healthcare) from the WBC cone collected from healthy platelet donor. Cells were washed and passed through 40 um cell strainer before being stained with T cell surface antibodies. Then cells were put on cell sorter (BD FACSARIA III). Specific cell populations were collected as follows: CD4^+CD25^− cells (T effector cells), CD4^+CD25^+CD45RA^+CD127^− cells (T regulatory cells) and CD3^− cells (serve as Antigen Presenting Cells, APC). T effector cells were labeled with CellTrace CFSE (Invitrogen), heavily washed before cell number counting. Effector cells and T-regs were then mixed together at 1:1 ratio in culture media (RPMI 1640, 10% FBS, Pen-Strep and 1% NEAA) which enhanced with anti-CD3 (3 ug/ml) anti-CD28 (2 ug/ml) antibodies. APCs were treated with Mitomycin (50 ug/ml) for 30 minutes at 37° C., 5% CO2 incubator, then added to culture mix (APC:T-eff 2:1) as a proliferation co-stimulator. Cell mixture was incubated at 37° C., 5% CO2 for 6 days before being re-stained with T cell surface markers (CD4, CD25) and sent for FACS analysis (FIGS. 1A-1B, 4 and 5).
# Molecule 11702 and 11704 were added to treat groups respectively at a concentration gradient of 5 uM, 25 uM and 50 uM.
# FACS results focus on CD4^+CD25^−CFES^+ population (T effector cells). […] As T cells proliferate and replicate, CFSE peaks extend successively to left and become less fluorescent (toward negative range). The more cell population moves to left, the stronger the proliferation.
# B16 melanoma = B16 melanoma implantation in C57 BL mice; format: in vivo
# Protocol: After implantation of B16 melanoma, C57 BL mice underwent treatment with 11702 GITR agonist or DMSO control. (A) Animals lived longer after GITR agonist intraperitoneal 30 mg/kg treatment twice per week (p=0.0333, log rank). (B) Tumor volume was inhibited in 11702 treated animals (p<0.05, Anova).
# After implantation of B16 melanoma, C57 BL mice underwent treatment with 11702 GITR agonist or DMSO control. […] (B) Tumor volume was inhibited in 11702 treated animals (p<0.05, Anova).
Structure (SMILES),effect on T effector cell proliferation (in words) (T effector cells),most effective dose to accelerate T cell proliferation (T effector cells; T effector without T-reg),"increase of proliferated population compared to base line (T effector cells; T effector without T-reg, 5 uM)","increase of proliferated population compared to base line (T effector cells; T effector without T-reg, 25 uM)","increase of proliferated population compared to base line (T effector cells; T effector without T-reg, 50 uM)",increase of T cell expansion compared to T control group (without molecule) (T effector cells; 5 uM),increase of T cell expansion compared to T control group (without molecule) (T effector cells; 25 uM),increase of T cell expansion compared to T control group (without molecule) (T effector cells; 50 uM),"survival (B16 melanoma; intraperitoneal 30 mg/kg twice per week vs DMSO control, p=0.0333, log rank)",PD-1 expression on activated CD4+ and effector memory CD8+ tumor infiltrating lymphocytes (B16 melanoma; vs DMSO control),activated CD4+ cells among tumor infiltrating lymphocytes (FACs) (B16 melanoma; vs DMSO control),effector memory cytotoxic CD8+ T cells among tumor infiltrating lymphocytes (FACs) (B16 melanoma; vs DMSO control),"Tumor volume (B16 melanoma; vs DMSO control, p<0.05, Anova)","inhibition at 50 µM (T effector cells; Homo sapiens, T-cell, T effector without T-reg, 50 uM, read-out: inhibition (decrease) of T cell proliferation)","inhibition at 25 µM (T effector cells; Homo sapiens, T-cell, with T-reg, 25 uM, read-out: inhibition (decrease) of T cell expanding)","effect on T effector cells (T effector cells; T effector without T-reg, 5 uM)","effect on T effector cells (T effector cells; T effector without T-reg, 25 um)","decrease of proliferation compared to base line (T effector cells; with T-reg, 50 uM)"
OCC1OC(Nc2ccc(-c3ccc(NC4CC(O)C(CO)O4)cc3)cc2)CC1O (stereo not shown) [RMGL171102],highly active,around 25 uM,47.4%,61.7%,52%,34.4%,96.7%,107.1%,lived longer,increased PD-1 expression,increased presence,increased,inhibited,,,,,
O=C(CCCCC(=O)NN=Cc1cccc(O)c1)NN=Cc1cccc(O)c1 [RMGL171104],dose dependent retraction of T effector cells,,,,,,,,,,,,,39.1%,33.9%,no significant effect,no significant effect,55.9%
